Laboratory results: article PMC7827406, “Structure–Activity Relationship (SAR) Study of Spautin-1 to Entail the Discovery of Novel NEK4 Inhibitors” (International Journal of Molecular Sciences, 2021)
Like-named read-outs stand apart in the source and are kept apart here.

Experiments:
Assay in all cases: biochemical
Design in all cases: Eurofins KinaseProfiler full panel at Km ATP, residual kinase activity (%) relative to DMSO
MST2(h) = target: T1, MST2(h) (Homo sapiens, UniProt Q13188)
T1 construct: gene STK3
T1 sequence (Q13188 1-491): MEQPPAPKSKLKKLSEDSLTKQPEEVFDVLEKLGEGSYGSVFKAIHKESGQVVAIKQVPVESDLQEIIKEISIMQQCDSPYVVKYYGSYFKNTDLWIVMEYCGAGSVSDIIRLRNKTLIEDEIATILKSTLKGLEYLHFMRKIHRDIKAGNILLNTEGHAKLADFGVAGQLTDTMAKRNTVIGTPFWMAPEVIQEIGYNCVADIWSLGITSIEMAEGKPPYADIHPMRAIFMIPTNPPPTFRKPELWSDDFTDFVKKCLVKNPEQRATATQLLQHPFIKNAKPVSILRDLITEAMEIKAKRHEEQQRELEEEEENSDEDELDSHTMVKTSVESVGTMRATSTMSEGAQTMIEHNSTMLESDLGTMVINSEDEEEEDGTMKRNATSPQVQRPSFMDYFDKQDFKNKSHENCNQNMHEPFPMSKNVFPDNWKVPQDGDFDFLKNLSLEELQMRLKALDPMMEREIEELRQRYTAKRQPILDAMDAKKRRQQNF
In short: (§1)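 Compounds screened at 10 µM in radiometric kinase activity assays at Km ATP, reported as remaining kinase activity (%). A KINOMEscan competition-binding screen at 10 µM measured DNA-tagged kinase retained on immobilized active-site ligand by qPCR.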

CK2α2(h) = target: T2, CK2α2(h) (Homo sapiens, UniProt P19784)
T2 construct: gene CSNK2A2
T2 sequence (P19784 whole entry): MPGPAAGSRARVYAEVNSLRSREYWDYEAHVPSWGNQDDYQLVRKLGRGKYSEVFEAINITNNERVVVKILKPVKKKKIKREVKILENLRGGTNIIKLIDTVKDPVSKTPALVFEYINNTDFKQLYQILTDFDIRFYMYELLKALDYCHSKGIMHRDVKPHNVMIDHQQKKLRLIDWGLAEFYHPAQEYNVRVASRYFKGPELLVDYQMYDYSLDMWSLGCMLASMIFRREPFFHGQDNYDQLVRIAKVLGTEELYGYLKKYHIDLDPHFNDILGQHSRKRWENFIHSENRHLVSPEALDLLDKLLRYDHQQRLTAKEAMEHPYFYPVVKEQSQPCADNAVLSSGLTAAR
In short: as §1

Flt3(h) = target: T3, Flt3(h) (Homo sapiens, UniProt P36888)
T3 sequence (P36888 1-993): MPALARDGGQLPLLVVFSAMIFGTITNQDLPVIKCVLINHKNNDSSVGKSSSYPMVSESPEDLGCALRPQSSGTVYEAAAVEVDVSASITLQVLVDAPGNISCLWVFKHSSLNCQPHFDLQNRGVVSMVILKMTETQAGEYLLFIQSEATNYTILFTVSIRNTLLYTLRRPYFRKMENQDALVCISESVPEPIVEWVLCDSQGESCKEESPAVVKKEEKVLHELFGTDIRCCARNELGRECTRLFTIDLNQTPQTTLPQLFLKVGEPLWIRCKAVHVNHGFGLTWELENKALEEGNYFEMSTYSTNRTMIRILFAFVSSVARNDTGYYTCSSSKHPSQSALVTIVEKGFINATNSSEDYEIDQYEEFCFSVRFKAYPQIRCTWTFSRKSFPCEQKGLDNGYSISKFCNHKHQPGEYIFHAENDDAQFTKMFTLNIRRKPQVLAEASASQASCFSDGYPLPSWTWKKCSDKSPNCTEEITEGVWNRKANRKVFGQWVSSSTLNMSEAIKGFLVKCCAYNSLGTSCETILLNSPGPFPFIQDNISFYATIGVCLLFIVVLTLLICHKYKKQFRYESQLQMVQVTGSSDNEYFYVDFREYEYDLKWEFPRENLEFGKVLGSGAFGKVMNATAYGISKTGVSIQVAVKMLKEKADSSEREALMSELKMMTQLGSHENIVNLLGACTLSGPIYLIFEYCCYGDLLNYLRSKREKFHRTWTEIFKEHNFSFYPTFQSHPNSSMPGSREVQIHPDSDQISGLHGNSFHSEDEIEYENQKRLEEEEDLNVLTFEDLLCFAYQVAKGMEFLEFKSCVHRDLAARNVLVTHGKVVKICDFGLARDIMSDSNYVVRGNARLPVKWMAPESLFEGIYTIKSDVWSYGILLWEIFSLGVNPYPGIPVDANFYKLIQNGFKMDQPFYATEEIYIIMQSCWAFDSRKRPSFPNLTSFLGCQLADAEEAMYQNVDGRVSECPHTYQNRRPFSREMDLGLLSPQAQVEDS
In short: as §1

GCK(h) = target: T4, GCK(h) (Homo sapiens, UniProt Q12851)
T4 construct: gene MAP4K2
T4 sequence (Q12851 1-820): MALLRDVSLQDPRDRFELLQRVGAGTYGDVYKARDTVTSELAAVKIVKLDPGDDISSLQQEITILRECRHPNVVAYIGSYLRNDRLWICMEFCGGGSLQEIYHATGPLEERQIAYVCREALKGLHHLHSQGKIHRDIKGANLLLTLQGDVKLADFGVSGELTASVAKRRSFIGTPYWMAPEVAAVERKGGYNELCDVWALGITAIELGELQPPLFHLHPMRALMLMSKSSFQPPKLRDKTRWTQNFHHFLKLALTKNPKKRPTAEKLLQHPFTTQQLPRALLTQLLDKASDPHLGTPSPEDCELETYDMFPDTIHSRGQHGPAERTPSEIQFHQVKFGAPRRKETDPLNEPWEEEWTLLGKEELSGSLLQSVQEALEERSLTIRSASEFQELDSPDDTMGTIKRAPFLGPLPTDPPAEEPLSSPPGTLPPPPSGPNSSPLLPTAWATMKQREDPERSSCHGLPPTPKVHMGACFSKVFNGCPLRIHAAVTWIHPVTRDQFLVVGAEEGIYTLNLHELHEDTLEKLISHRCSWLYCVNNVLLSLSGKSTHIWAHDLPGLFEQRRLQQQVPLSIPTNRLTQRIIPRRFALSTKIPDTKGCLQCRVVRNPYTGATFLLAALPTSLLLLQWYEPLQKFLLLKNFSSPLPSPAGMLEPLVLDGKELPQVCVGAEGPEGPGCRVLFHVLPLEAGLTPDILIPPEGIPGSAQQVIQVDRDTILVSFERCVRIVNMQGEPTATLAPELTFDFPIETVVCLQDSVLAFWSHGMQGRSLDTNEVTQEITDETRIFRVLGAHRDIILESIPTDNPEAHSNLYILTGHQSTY
In short: as §1

[1] = read-out: Residual activity (%) Spautin-1 5aa
[2] = read-out: Residual activity (%) 5as
[3] = read-out: Residual activity (%) 5at
[4] = read-out: Residual activity (%) 5ay

Question: How did the remaining activity at 10 µM (MST2(h); [1]) turn out when `Fc1ccc(CNc2ncnc3ccc(F)cc23)cc1` [5aa, 6-Fluoro-N-(4-fluorobenzyl)-4-Quinazolinamine] was run?
Answer: The remaining activity at 10 µM was 98%.

Question: What about the remaining activity at 10 µM (CK2α2(h); [1]) of the same molecule?
Answer: The remaining activity at 10 µM was 101%.

Question: And the remaining activity at 10 µM (Flt3(h); [1])?
Answer: Its remaining activity at 10 µM is 71%.

Question: And the remaining activity at 10 µM (GCK(h); [1])?
Answer: The remaining activity at 10 µM was 109%.

Question: Which results are given for `Fc1ccc(CCNc2ncnc3ccc(F)cc23)cc1` [5as, 6-Fluoro-N-[2-(4-Fluorophenyl)Ethyl]-4-Quinazolinamine]?
Answer: remaining activity at 10 µM (MST2(h); [2]): 112%; remaining activity at 10 µM (CK2α2(h); [2]): 95%; remaining activity at 10 µM (Flt3(h); [2]): 73%; remaining activity at 10 µM (GCK(h); [2]): 88%

Question: Which results are given for `Fc1ccc2ncnc(NCCc3ccc(Cl)cc3)c2c1` [5at, N-[2-(4-Chlorophenyl)Ethyl]-6-Fluoro-4-Quinazolinamine]?
Answer: remaining activity at 10 µM (MST2(h); [3]): 81%; remaining activity at 10 µM (CK2α2(h); [3]): 86%; remaining activity at 10 µM (Flt3(h); [3]): 62%; remaining activity at 10 µM (GCK(h); [3]): 87%

Question: With `COc1ccc2ncnc(Nc3cccc(F)c3)c2c1` [5ay, N-(3-Fluorophenyl)-6-Methoxy-4-Quinazolinamine] as the molecule, how does the remaining activity at 10 µM (MST2(h); [4]) read?
Answer: Its remaining activity at 10 µM is 102%.

Question: And the remaining activity at 10 µM (CK2α2(h); [4])?
Answer: Its remaining activity at 10 µM is 83%.

Question: And the remaining activity at 10 µM (Flt3(h); [4])?
Answer: Its remaining activity at 10 µM is 70%.

Question: And the remaining activity at 10 µM (GCK(h); [4])?
Answer: Its remaining activity at 10 µM is 60%.
